In patent publication US5430062A, “Stilbene derivatives as anticancer agents” (priority 1993, dated 1995):
Counter-ions that a name gives are not always drawn. Like-named read-outs stand apart in the source and are kept apart here.

Columns and labels:
tubulin = assay: Inhibition of tubulin polymerization (turbidimetry); assay type: biochemical, bovine
MLM melanoma = assay: MTT cytotoxicity assay, MLM
A-549 lung carcinoma = assay: MTT cytotoxicity assay, A-549; details: for IC50: Homo sapiens, A549, […]
MCF-7 breast carcinoma = assay: MTT cytotoxicity assay, MCF-7; details: for IC50: Homo sapiens, MCF7, […]
[1] = test system: HT-29 colon adenocarcinoma; assay: MTT cytotoxicity assay, HT-29; details: for IC50: Homo sapiens, HT-29, […]
SKMEL-5 melanoma = assay: MTT cytotoxicity assay, SKMEL-5; details: for IC50: Homo sapiens, SK-MEL-5, […], read-out: Cytotoxicity ED50, SKMEL-5
[2] = second series (Tables V-VII, IX), read-out: Inhibition of Tubulin Polymerization IC50 (±S.D.)
[3] = read-out: Cytotoxicity ED50, MLM
[4] = read-out: Cytotoxicity ED50, A-549
[5] = read-out: Cytotoxicity ED50, MCF-7
[6] = read-out: Cytotoxicity ED50, HT-29
[7] = first series (Table VIII and text), 37° C., 20 min, read-out: Tubulin polymerization IC50 (±S.D.)
[8] = read-out: Cytotoxicity ED50, MLM, MLM, MTT, six days
[9] = read-out: Cytotoxicity ED50, A-549, A-549, MTT, six days
[10] = read-out: Cytotoxicity ED50, MCF-7, MCF-7, MTT, six days
[11] = read-out: Cytotoxicity ED50, HT-29, HT-29, MTT, six days

Structure (SMILES)	IC50 (tubulin; [2]) [µM]	IC50 (MLM melanoma; [3]) [µM]	IC50 (A-549 lung carcinoma; [4]) [µM]	IC50 (MCF-7 breast carcinoma; [5]) [µM]	IC50 [1, 6] [µM]	IC50 (SKMEL-5 melanoma) [µM]	other results
CCCc1ccc(NCc2cc(OC)c(OC)c(OC)c2)cc1 [110g, 4-n-Propyl-N-(3,4,5-trimethoxybenzyl)aniline Hydrochloride]	–	–	–	–	–	–	IC50 (tubulin; Table X, different glutamate preparation (1M monosodium glutamate and GTP), read-out: inhibn of tubulin polymn IC50 (±SD)): > 40 µM
COc1ccc(CC2NCCc3c2cc(OC)c(OC)c3OC)cc1 (stereo not drawn) [compound 38, 1-(4'-Methoxybenzyl)-5,6,7-trimethoxy-1,2,3,4-tetrahydroisoquinoline]	> 40	> 25	19.3	> 25	20.2	> 25	–
COc1ccc(/C=C\c2ccc(OC)c(OC)c2OC)cc1 [5d, (Z)-1-(4-Methoxyphenyl)-2-(2,3,4-trimethoxy-phenyl)ethene]	–	10.9	0.97	0.23	1	1.1	inhibition of tubulin polymerization (class) (tubulin): inactive
COc1ccc2ccc3cc(OC)c(OC)c(OC)c3c2c1 [32b, 2,3,4,6-Tetramethoxyphenanthrene]	> 40	> 25	> 25	> 25	1.1	12.5	–
COc1ccc2c(ccc3cc(OC)c(OC)c(OC)c32)c1 [32c, 2,3,4,7-Tetramethoxyphenanthrene]	> 40	> 25	> 25	> 25	> 25	> 25	–
COC(=O)/C(=C/c1cccc(OC)c1)c1cc(OC)c(OC)c(OC)c1 [compound 24b, (E)-Methyl 3-(3-methoxyphenyl)-2-(3,4,5-trimethoxy-phenyl)-prop-2-enoate]	> 40	15.5	1.3	1.3	0.7	1.5	–
COc1ccc(NC(=O)c2cc(OC)c(OC)c(OC)c2)cc1 [11a, 3,4,5-Trimethoxy-N-(4-methoxyphenyl)benzamide]	–	> 25	14.1	12.2	22.7	> 25	inhibition of tubulin polymerization (in words) (tubulin): lower inhibitory activity
CCCOc1ccc(/C=C\c2cc(OC)c(OC)c(OC)c2)cc1 [compound 15b, (Z)-1-(4-n-Propoxyphenyl)-2-(3,4,5-trimethoxyphenyl)-thene]	6	0.065	0.039	0.66	0.028	0.014	–
COc1ccc(C2Cc3cc(OC)c(OC)c(OC)c3C2)cc1 (stereo not drawn) [compound 35, 2-(4-Methoxyphenyl)-4,5,6-trimethoxyindane]	> 40	> 25	> 25	> 25	12.8	19.5	–
COc1cc(/C=C\c2ccc(SC)cc2)cc(OC)c1OC [compound 15c, (Z)-1-(4-Methylthiophenyl)-2-(3,4,5-trimethoxyphenyl)ethene]	6.2	0.0033	0.00019	0.0054	1.8e-05	4e-06	cytotoxicity relative to parent (in words) (MLM melanoma; MLM): as cytotoxic as the parent compound; cytotoxicity relative to parent (in words) (A-549 lung carcinoma; A-549): as cytotoxic as the parent compound; cytotoxicity relative to 5a (in words) (MCF-7 breast carcinoma; MCF cell culture): about one order of magnitude less cytotoxic than 5a; cytotoxicity relative to 5a (in words) ([1]; HT-29 cells): about one order of magnitude more potent; cytotoxicity relative to 5a (in words) (SKMEL-5 melanoma; SKMEL-5 cells): two orders of magnitude more potent
COc1cc(CCc2cc(OC)c(OC)c(OC)c2)cc(OC)c1 [compound 8s]	–	> 25	> 25	> 25	> 25	> 25	inhibition of tubulin polymerization (in words) (tubulin): lower activity
COc1ccc(CC2c3cc(OC)c(OC)c(OC)c3CCN2C)cc1 (stereo not drawn) [compound 41, 1-(4'-Methoxybenzyl)-5,6,7-trimethoxy-2-methyl-1,2,3,4-tetrahydroisoquinoline]	> 40	> 25	11.4	22.7	9.7	8.8	–
COc1ccc(CNc2cc(OC)c(OC)c(OC)c2)cc1 [12c, 4-Methoxy-N-(3,4,5-trimethoxyphenyl)benzylamine]	–	> 25	0.83	0.86	2.24	1.13	inhibition of tubulin polymerization (in words) (tubulin): lower inhibitory activity; IC50 (tubulin; [7]): > 50 µM
COc1ccc(C(=O)c2nccc3c(OC)c(OC)c(OC)cc23)cc1 [compound 39, 1-(4'-Methoxybenzoyl)-5,6,7-trimethoxyisoquinoline]	> 40	> 25	> 25	> 25	> 25	> 25	–
COc1ccc(/C=C\c2cc(OC)c(OC(C)=O)c(OC)c2)cc1 [15l, (Z)-1-(4-Acetoxy-3,5-dimethoxyphenyl)-2-(4-methoxyphenyl)ethene]	24	> 25	21.5	> 25	8.7	0.6	–
COc1ccc(/C=C/c2cc(OC)c(OC)c(OC)c2)cc1 [compound 6a, (E)-1-(4-Methoxyphenyl)-2-(3,4,5-trimethoxyphenyl)ethene]	–	–	–	–	–	0.81	IC50 (tubulin; [7]): > 50 µM; IC50 (MLM melanoma; [8]): 2.07 µM; IC50 (A-549 lung carcinoma; [9]): 1.18 µM; IC50 (MCF-7 breast carcinoma; [10]): 1.05 µM; IC50 [1, 11]: 1.82 µM

Structure (SMILES)	IC50 (tubulin; [2]) [µM]	IC50 (MLM melanoma; [3]) [µM]	IC50 (A-549 lung carcinoma; [4]) [µM]	IC50 (MCF-7 breast carcinoma; [5]) [µM]	IC50 [1, 6] [µM]	IC50 (SKMEL-5 melanoma) [µM]	other results
CCOc1ccc(/C=C\c2cc(OC)c(OC)c(OC)c2)cc1 [compound 15a, (Z)-1-(4-Ethoxyphenyl)-2-(3,4,5-trimethoxyphenyl)ethene]	2.7	0.029	0.0016	0.096	0.0018	0.0025	–
COc1ccc(C(Cc2cc(OC)c(OC)c(OC)c2)C(=O)O)cc1 (stereo not drawn) [compound 33, 2-(4-Methoxyphenyl)-3-(3,4,5-trimethoxyphenyl)propionic acid]	> 40	> 25	14.3	> 25	9.4	7.4	–
COc1cc(CCc2ccncc2)cc(OC)c1OC [8i, 1-(4-Pyridyl)-2-(3,4,5-trimethoxyphenyl)ethane]	–	> 25	> 25	> 25	> 25	> 25	–
COc1cc(CCc2ccc(OC(C)=O)cc2)cc(OC)c1OC [8p]	–	> 25	19	> 25	> 25	> 25	–
COc1ccc(/C=C/c2cc(OC)c(OC(C)=O)c(OC)c2)cc1 [16l, (E)-1-(4-Acetoxy-3,5-dimethoxyphenyl)-2-(4-methoxy-phenyl)ethene]	–	21	16.4	19.4	11.7	10.2	–
COc1ccccc1/C=C/c1cc(OC)c(OC)c(OC)c1 [6c]	–	> 25	12.2	18	12.1	13.5	–
COc1cc(CCc2cccnc2)cc(OC)c1OC [8j, 1-(3-Pyridyl)-2-(3,4,5-trimethoxyphenyl)ethane]	–	> 25	12.2	> 25	> 25	> 25	–
COc1cc(/C=C/c2ccc(O[Si](C)(C)C(C)(C)C)cc2)cc(OC)c1OC [6m, (E)-1-[(4-t-Butyldimethylsilyloxy)phenyl]-2-(3,4,5-trimethoxyphenyl)ethene]	–	> 25	> 25	> 25	> 25	> 25	–
COc1cc(/C=C/c2ccc(Br)cc2)cc(OC)c1OC [6h]	–	5.13	6.47	9.14	12.7	6.53	–
COc1cc(/C=C/c2ccc(OC)c(OC)c2OC)cc(OC)c1OC [6t]	–	23.9	12.5	14.7	10.3	10.6	–
COc1ccc(/C=C\c2cc(OC)c(OCc3ccccc3)c(OC)c2)cc1 [15j, (Z)-1-[4-(Benzyloxy)-3,5-(dimethoxy)phenyl]-2-(4-methoxyphenyl)ethene]	> 40	–	–	–	–	–	–
COc1cc(/C=C/c2ccc(O)cc2)cc(OC)c1OC [compound 6o, (E)-1-(4-Hydroxyphenyl)-2-(3,4,5-trimethoxyphenyl)ethene]	–	24.2	> 25	18.6	> 25	11.6	–
COc1ccc(/C=C\c2cc(OC)c(OC)c(OC)c2)cc1 [compound E, reference compound]	–	–	–	–	–	–	IC50 (tubulin; Table X footnote b, different glutamate preparation, read-out: tubulin polymerization IC50, standard agents): 1.2 ± 0.05 µM
COc1cccc2c1C(=O)c1c(O)c3c(c(O)c1C2=O)C[C@@](O)(C(=O)CO)C[C@@H]3O[C@H]1C[C@H](N)[C@H](O)[C@H](C)O1 [Adriamycin, reference compound]	–	0.13	0.029	0.031	0.055	0.032	–
COc1cccc(/C=C/c2cc(OC)c(OC)c(OC)c2)c1 [6b]	–	–	–	–	–	10.5	IC50 (MLM melanoma; [8]): > 25 µM; IC50 (A-549 lung carcinoma; [9]): 9.8 µM; IC50 (MCF-7 breast carcinoma; [10]): 12.2 µM; IC50 [1, 11]: 7.3 µM
COc1cc(CNc2cc(OC)c(OC)c(OC)c2)cc(OC)c1OC [12f]	–	> 25	> 25	> 25	> 25	> 25	–
